Assay results as given in patent US20230085307A1, “PYRIDAZINONE COMPOUND AND HERBICIDE” (NISSAN CHEMICAL CORPORATION, priority 2019, published 2023).

The compounds below were run on late watergrass (assay: Test Example 1: herbicidal activity, application before weed generation under submerged conditions (Table 16, symbol A)). Details: amount of applied herbicide 320 g/ha.
Format: in vivo, late watergrass (Echinochloa oryzicola)
How it was run: (§1)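 Emulsion formulation, water-diluted to set dose, was put onto the flooded surface (4 cm depth, alluvial soil) the same day weeds were sown and 2.5-leaf rice transplanted. After 3 weeks at 25-30 °C under glass, each species was rated 0 (≤5% kill) to 5 (≥90% kill).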

Question: With `COc1ccccc1-c1sc2cc(F)ccc2c1-c1c(OS(=O)(=O)c2ccc(C)cc2)c(C)nn(C)c1=O` [3-027] as the compound, how does the “Herbicidal effect, A: late watergrass” value read?
Answer: 2 (Herbicidal rate of 20% or more and less than 40%)

Question: With `COc1ccccc1-c1sc2cc(F)ccc2c1-c1c(OS(=O)(=O)N(C)C)c(C)nn(C)c1=O` [3-028] as the compound, how does the “Herbicidal effect, A: late watergrass” value read?
Answer: 2 (Herbicidal rate of 20% or more and less than 40%)

The compounds below were run on Japanese bulrush (assay: Test Example 1: herbicidal activity, application before weed generation under submerged conditions (Table 16, symbol B)). Details: amount of applied herbicide 320 g/ha.
Format: in vivo, Japanese bulrush (Schoenoplectus juncoides)
How it was run: as §1

Question: With `COc1ccccc1-c1sc2cc(F)ccc2c1-c1c(OS(=O)(=O)c2ccc(C)cc2)c(C)nn(C)c1=O` [3-027] as the compound, how does the “Herbicidal effect, B: Japanese bulrush” value read?
Answer: 3 (Herbicidal rate of 40% or more and less than 70%)

Question: Which “Herbicidal effect, B: Japanese bulrush” value does the source give for `COc1ccccc1-c1sc2cc(F)ccc2c1-c1c(OS(=O)(=O)N(C)C)c(C)nn(C)c1=O` [3-028] here?
Answer: 0 (Herbicidal rate of 5% or less (almost no effect))

Each compound was assayed on late watergrass (assay: Test Example 2: herbicidal activity, application during weed generation under submerged conditions (Table 17, symbol A)). Details: AAH 320 g/ha; application during weed generation, submerged conditions.
Format: in vivo, late watergrass (Echinochloa oryzicola)
How it was run: (§2)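 In this pot test, flooded alluvial soil (water depth 4 cm) holds all three species sown as a mixture. Once seedlings have one to two leaves, the compound's emulsion, thinned with water to the intended dose, is poured on the water; grading follows after three weeks on the earlier criteria.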

Question: `COc1ccccc1-c1sc2cc(F)ccc2c1-c1c(OS(=O)(=O)c2ccc(C)cc2)c(C)nn(C)c1=O` [3-027] was tested. Which “herbicidal effect rating, A: late watergrass” value did it give?
Answer: 3 (Herbicidal rate of 40% or more and less than 70%)

Question: Which “herbicidal effect rating, A: late watergrass” value does the source give for `COc1ccccc1-c1sc2cc(F)ccc2c1-c1c(OS(=O)(=O)N(C)C)c(C)nn(C)c1=O` [3-028] here?
Answer: 2 (Herbicidal rate of 20% or more and less than 40%)

What follows are compounds tested on oval-leafed pondweed (assay: Test Example 2: herbicidal activity, application during weed generation under submerged conditions (Table 17, symbol C)). Details: AAH 320 g/ha; application during weed generation, submerged conditions.
Format: in vivo, oval-leafed pondweed (Monochoria vaginalis)
How it was run: as §2

Question: With `COc1ccccc1-c1sc2cc(F)ccc2c1-c1c(OS(=O)(=O)c2ccc(C)cc2)c(C)nn(C)c1=O` [3-027] as the compound, how does the “herbicidal effect rating, C: oval-leafed pondweed” value read?
Answer: 3 (Herbicidal rate of 40% or more and less than 70%)

Question: With `COc1ccccc1-c1sc2cc(F)ccc2c1-c1c(OS(=O)(=O)N(C)C)c(C)nn(C)c1=O` [3-028] as the compound, how does the “herbicidal effect rating, C: oval-leafed pondweed” value read?
Answer: 0 (Herbicidal rate of 5% or less (almost no effect))

These compounds were tested on barnyard grass (assay: Test Example 3: herbicidal effect by foliage application, Wagner pot (Table 18, symbol H)). Details: amount of applied herbicide 320 g/ha.
Format: in vivo, barnyard grass (Echinochloa crus-galli)
How it was run: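 Plants were sown in alluvial soil held under 0.1–0.5 cm standing water and grown 14 days in a greenhouse at 25–30 °C. An emulsifiable formulation, water-diluted to the set dose, was then sprayed onto the foliage, and effects were scored three weeks later using previously defined criteria.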

Question: With `COc1ccccc1-c1sc2cc(F)ccc2c1-c1c(OS(=O)(=O)c2ccc(C)cc2)c(C)nn(C)c1=O` [3-027] as the compound, how does the “herbicidal effect on H: barnyard grass” value read?
Answer: 5 (Herbicidal rate of 90% or more (almost completely withered))

Question: For `COc1ccccc1-c1sc2cc(F)ccc2c1-c1c(OS(=O)(=O)N(C)C)c(C)nn(C)c1=O` [3-028], which “herbicidal effect on H: barnyard grass” value is on record?
Answer: 4 (Herbicidal rate of 70% or more and less than 90%)

What follows are compounds tested on southern crabgrass (assay: Test Example 4: herbicidal effect by soil treatment (Table 19, symbol F)). Details: amount of applied herbicide 320 g/ha.
Format: in vivo, southern crabgrass (Digitaria ciliaris)
How it was run: (§3)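 Three weeks of greenhouse growth at 25° C. to 30° C. followed a uniform surface spray of water-diluted emulsion at a predetermined herbicide amount. Seeds had been sown beforehand under about 1.5 cm of sterilized diluvial soil. Grading followed criteria set out in an earlier test.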

Question: Which “F: southern crabgrass, herbicidal effect grade” value (“F: southern crabgrass” below) does the source give for `COc1ccccc1-c1sc2cc(F)ccc2c1-c1c(OS(=O)(=O)c2ccc(C)cc2)c(C)nn(C)c1=O` [3-027] here?
Answer: 0 (Herbicidal rate of 5% or less (almost no effect))

Question: `COc1ccccc1-c1sc2cc(F)ccc2c1-c1c(OS(=O)(=O)N(C)C)c(C)nn(C)c1=O` [3-028] was tested. Which “F: southern crabgrass” value did it give?
Answer: 0 (Herbicidal rate of 5% or less (almost no effect))

These compounds were tested on barnyard grass (assay: Test Example 4: herbicidal effect by soil treatment (Table 19, symbol H)). Details: amount of applied herbicide 320 g/ha.
Format: in vivo, barnyard grass (Echinochloa crus-galli)
How it was run: as §3

Question: How did the “H: barnyard grass, herbicidal effect grade” value turn out when `COc1ccccc1-c1sc2cc(F)ccc2c1-c1c(OS(=O)(=O)c2ccc(C)cc2)c(C)nn(C)c1=O` [3-027] was run?
Answer: 0 (Herbicidal rate of 5% or less (almost no effect))

Question: With `COc1ccccc1-c1sc2cc(F)ccc2c1-c1c(OS(=O)(=O)N(C)C)c(C)nn(C)c1=O` [3-028] as the compound, how does the “H: barnyard grass, herbicidal effect grade” value read?
Answer: 0 (Herbicidal rate of 5% or less (almost no effect))

These compounds were tested on blackgrass (assay: Test Example 4: herbicidal effect by soil treatment (Table 19, symbol J)). Details: amount of applied herbicide 320 g/ha.
Format: in vivo, blackgrass (Alopecurus myosuroides)
How it was run: as §3

Question: Which “J: blackgrass, herbicidal effect grade” value does the source give for `COc1ccccc1-c1sc2cc(F)ccc2c1-c1c(OS(=O)(=O)c2ccc(C)cc2)c(C)nn(C)c1=O` [3-027] here?
Answer: 3 (Herbicidal rate of 40% or more and less than 70%)

Question: For `COc1ccccc1-c1sc2cc(F)ccc2c1-c1c(OS(=O)(=O)N(C)C)c(C)nn(C)c1=O` [3-028], which “J: blackgrass, herbicidal effect grade” value is on record?
Answer: 0 (Herbicidal rate of 5% or less (almost no effect))

The compounds below were run on chickweed (assay: Test Example 4: herbicidal effect by soil treatment (Table 19, symbol P)). Details: amount of applied herbicide 320 g/ha.
Format: in vivo, common chickweed (Stellaria media)
How it was run: as §3

Question: Which “P: chickweed, herbicidal effect grade” value does the source give for `COc1ccccc1-c1sc2cc(F)ccc2c1-c1c(OS(=O)(=O)c2ccc(C)cc2)c(C)nn(C)c1=O` [3-027] here?
Answer: 0 (Herbicidal rate of 5% or less (almost no effect))

Question: `COc1ccccc1-c1sc2cc(F)ccc2c1-c1c(OS(=O)(=O)N(C)C)c(C)nn(C)c1=O` [3-028] was tested. Which “P: chickweed, herbicidal effect grade” value did it give?
Answer: 0 (Herbicidal rate of 5% or less (almost no effect))

The compounds below were run on southern crabgrass (assay: Test Example 5: herbicidal effect by foliage application, plastic box (Table 20, symbol F)). Details: foliage application, 320 g/ha, three weeks after application.
Format: in vivo, southern crabgrass (Digitaria ciliaris)
How it was run: (§4)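 Plants sown in sterilized diluvial soil and grown 14 days in a greenhouse at 25° C to 30° C, then sprayed on the foliage with the compound's emulsion diluted in water to a predetermined herbicide amount. Injury to weeds and crops scored three weeks after application on a visual rating scale.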

Question: Which “F: southern crabgrass” value does the source give for `COc1ccccc1-c1sc2cc(F)ccc2c1-c1c(OS(=O)(=O)c2ccc(C)cc2)c(C)nn(C)c1=O` [3-027] here?
Answer: 3 (Herbicidal rate of 40% or more and less than 70%)

Question: How did the “F: southern crabgrass” value turn out when `COc1ccccc1-c1sc2cc(F)ccc2c1-c1c(OS(=O)(=O)N(C)C)c(C)nn(C)c1=O` [3-028] was run?
Answer: 3 (Herbicidal rate of 40% or more and less than 70%)

The compounds below were run on green foxtail (assay: Test Example 5: herbicidal effect by foliage application, plastic box (Table 20, symbol G)). Details: foliage application, 320 g/ha, three weeks after application.
Format: in vivo, green foxtail (Setaria viridis)
How it was run: as §4

Question: How did the “G: green foxtail, herbicidal effect grade” value turn out when `COc1ccccc1-c1sc2cc(F)ccc2c1-c1c(OS(=O)(=O)c2ccc(C)cc2)c(C)nn(C)c1=O` [3-027] was run?
Answer: 5 (Herbicidal rate of 90% or more (almost completely withered))

Question: For `COc1ccccc1-c1sc2cc(F)ccc2c1-c1c(OS(=O)(=O)N(C)C)c(C)nn(C)c1=O` [3-028], which “G: green foxtail, herbicidal effect grade” value is on record?
Answer: 4 (Herbicidal rate of 70% or more and less than 90%)

These compounds were tested on wild oat (assay: Test Example 5: herbicidal effect by foliage application, plastic box (Table 20, symbol I)). Details: foliage application, 320 g/ha, three weeks after application.
Format: in vivo, wild oat (Avena fatua)
How it was run: as §4

Question: For `COc1ccccc1-c1sc2cc(F)ccc2c1-c1c(OS(=O)(=O)c2ccc(C)cc2)c(C)nn(C)c1=O` [3-027], which “I: wild oat, herbicidal effect grade” value is on record?
Answer: 3 (Herbicidal rate of 40% or more and less than 70%)

Question: For `COc1ccccc1-c1sc2cc(F)ccc2c1-c1c(OS(=O)(=O)N(C)C)c(C)nn(C)c1=O` [3-028], which “I: wild oat, herbicidal effect grade” value is on record?
Answer: 0 (Herbicidal rate of 5% or less (almost no effect))

Each compound was assayed on windgrass (assay: Test Example 5: herbicidal effect by foliage application, plastic box (Table 20, symbol L)). Details: foliage application, 320 g/ha, three weeks after application.
Format: in vivo, windgrass (Apera spica-venti)
How it was run: as §4

Question: `COc1ccccc1-c1sc2cc(F)ccc2c1-c1c(OS(=O)(=O)c2ccc(C)cc2)c(C)nn(C)c1=O` [3-027] was tested. Which “L: windgrass, herbicidal effect grade” value did it give?
Answer: 5 (Herbicidal rate of 90% or more (almost completely withered))

Question: For `COc1ccccc1-c1sc2cc(F)ccc2c1-c1c(OS(=O)(=O)N(C)C)c(C)nn(C)c1=O` [3-028], which “L: windgrass, herbicidal effect grade” value is on record?
Answer: 5 (Herbicidal rate of 90% or more (almost completely withered))

Each compound was assayed on redroot pigweed (assay: Test Example 5: herbicidal effect by foliage application, plastic box (Table 20, symbol N)). Details: foliage application, 320 g/ha, three weeks after application.
Format: in vivo, redroot pigweed (Amaranthus retroflexus)
How it was run: as §4

Question: Which “N: redroot pigweed, herbicidal effect grade” value does the source give for `COc1ccccc1-c1sc2cc(F)ccc2c1-c1c(OS(=O)(=O)c2ccc(C)cc2)c(C)nn(C)c1=O` [3-027] here?
Answer: 5 (Herbicidal rate of 90% or more (almost completely withered))

Question: How did the “N: redroot pigweed, herbicidal effect grade” value turn out when `COc1ccccc1-c1sc2cc(F)ccc2c1-c1c(OS(=O)(=O)N(C)C)c(C)nn(C)c1=O` [3-028] was run?
Answer: 5 (Herbicidal rate of 90% or more (almost completely withered))

The compounds below were run on lambsquarters (assay: Test Example 5: herbicidal effect by foliage application, plastic box (Table 20, symbol O)). Details: foliage application, 320 g/ha, three weeks after application.
Format: in vivo, lambsquarters (Chenopodium album)
How it was run: as §4

Question: With `COc1ccccc1-c1sc2cc(F)ccc2c1-c1c(OS(=O)(=O)c2ccc(C)cc2)c(C)nn(C)c1=O` [3-027] as the compound, how does the “O: lambsquarters, herbicidal effect grade” value read?
Answer: 3 (Herbicidal rate of 40% or more and less than 70%)

Question: With `COc1ccccc1-c1sc2cc(F)ccc2c1-c1c(OS(=O)(=O)N(C)C)c(C)nn(C)c1=O` [3-028] as the compound, how does the “O: lambsquarters, herbicidal effect grade” value read?
Answer: 2 (Herbicidal rate of 20% or more and less than 40%)

These compounds were tested on persian speedwell (assay: Test Example 5: herbicidal effect by foliage application, plastic box (Table 20, symbol R)). Details: foliage application, 320 g/ha, three weeks after application.
Format: in vivo, Persian speedwell (Veronica persica)
How it was run: as §4

Question: Which “R: persian speedwell, herbicidal effect grade” value does the source give for `COc1ccccc1-c1sc2cc(F)ccc2c1-c1c(OS(=O)(=O)c2ccc(C)cc2)c(C)nn(C)c1=O` [3-027] here?
Answer: 0 (Herbicidal rate of 5% or less (almost no effect))

Question: With `COc1ccccc1-c1sc2cc(F)ccc2c1-c1c(OS(=O)(=O)N(C)C)c(C)nn(C)c1=O` [3-028] as the compound, how does the “R: persian speedwell, herbicidal effect grade” value read?
Answer: 0 (Herbicidal rate of 5% or less (almost no effect))
